One series has as its target NOX-4 (Homo sapiens (Human), UniProt Q9NPH5). Put plainly: NOX-4 inhibition (Nox assays). In kind it is biochemical.
A short description of series [1]: Mouse liver microsomal stability. In kind it is in vitro ADME. To be noted: mouse liver microsomes; read-out: MLM T1/2. The method, then: (§1) The aqueous solubility, liver microsomal stability, and in vivo pharmacokinetics were determined. […] These derivatives have requisite stability in mouse liver microsomes.
In general terms: Liver microsomes are vesicles of endoplasmic reticulum, rich in cytochrome P450 enzymes.

The nature of a further series: Cytotoxicity CC50. In kind it is cell-based.
The target in another series is NOX-2 (Homo sapiens (Human), UniProt P04839). Put plainly: NOX-2 inhibition (Nox assays). In kind it is biochemical.
The nature of series [2]: Aqueous (water) solubility. To be noted: for solubility: water. In kind it is physicochemical. The method, then: as §1
The nature of series [3]: In vivo pharmacokinetics in Sprague Dawley rats. Set-up: species or system rat. The note with it: for half-life: male SD rats. From the text:
The compound has a brain-to-plasma ratio >10.
In Vivo Pharmacokinetics for Compound TG15-132S in Sprague Dawley (SD) Rats.

The next series relates to THP1 monocytic cells. Put plainly: PMA-induced mRNA levels of NOX2, its subunits and inflammatory markers in THP1 cells. The note with it: THP1 cells treated with PMA 100 ng/ml. In kind it is cell-based. From the text:
These markers are suppressed by the treatment of NOX2 inhibitor TG15-132.HCI.

Structures can show the parent of a compound that is named as a salt. Where two headings read alike, the source gives them in different places. Bounds are passed on as bounds.

Sequence of NOX-4 (Q9NPH5 whole entry, species assumed): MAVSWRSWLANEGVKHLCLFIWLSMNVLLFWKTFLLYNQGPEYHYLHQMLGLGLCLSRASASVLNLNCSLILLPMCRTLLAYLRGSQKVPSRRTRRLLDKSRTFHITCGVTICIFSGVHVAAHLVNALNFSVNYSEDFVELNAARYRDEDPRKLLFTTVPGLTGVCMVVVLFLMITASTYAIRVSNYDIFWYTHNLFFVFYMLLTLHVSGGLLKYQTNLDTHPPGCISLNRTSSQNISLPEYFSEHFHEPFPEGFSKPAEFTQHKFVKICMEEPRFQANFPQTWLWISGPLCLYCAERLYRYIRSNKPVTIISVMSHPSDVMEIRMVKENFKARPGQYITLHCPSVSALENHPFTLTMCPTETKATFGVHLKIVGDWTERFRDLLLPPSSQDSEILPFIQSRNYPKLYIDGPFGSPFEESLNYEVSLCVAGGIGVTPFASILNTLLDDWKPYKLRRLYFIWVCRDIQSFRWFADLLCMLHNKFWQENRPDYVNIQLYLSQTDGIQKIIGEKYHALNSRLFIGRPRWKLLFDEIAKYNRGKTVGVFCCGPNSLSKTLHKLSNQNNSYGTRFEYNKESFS
Sequence of NOX-4 (P13498 whole entry partner, species assumed): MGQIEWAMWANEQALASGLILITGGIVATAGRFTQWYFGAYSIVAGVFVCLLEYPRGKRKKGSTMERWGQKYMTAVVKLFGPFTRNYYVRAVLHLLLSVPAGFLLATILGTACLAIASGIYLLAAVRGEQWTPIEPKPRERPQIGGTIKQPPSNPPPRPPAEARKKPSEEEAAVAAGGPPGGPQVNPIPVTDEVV
Sequence of NOX-2 (P04839 2-570, species assumed): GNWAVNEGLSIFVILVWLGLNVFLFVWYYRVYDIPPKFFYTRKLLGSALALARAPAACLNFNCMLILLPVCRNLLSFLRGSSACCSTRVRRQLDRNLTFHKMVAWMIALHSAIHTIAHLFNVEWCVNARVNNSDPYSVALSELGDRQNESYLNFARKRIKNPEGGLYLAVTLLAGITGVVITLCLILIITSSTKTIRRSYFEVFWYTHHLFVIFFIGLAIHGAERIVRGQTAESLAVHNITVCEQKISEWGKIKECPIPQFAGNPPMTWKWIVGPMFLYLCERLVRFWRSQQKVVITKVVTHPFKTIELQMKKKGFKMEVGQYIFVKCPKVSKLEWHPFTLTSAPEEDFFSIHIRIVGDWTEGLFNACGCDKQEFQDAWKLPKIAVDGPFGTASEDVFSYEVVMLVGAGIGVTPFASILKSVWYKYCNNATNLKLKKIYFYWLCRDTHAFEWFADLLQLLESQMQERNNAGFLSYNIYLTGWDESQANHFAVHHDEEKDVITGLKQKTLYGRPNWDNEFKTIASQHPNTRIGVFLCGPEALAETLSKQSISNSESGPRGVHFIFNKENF
Sequence of NOX-2 (P13498 whole entry partner, species assumed): as the sequence (P13498 whole entry partner, species assumed) above

Broadly, the IC50 is the midpoint of a concentration-inhibition curve. Read a high IC50 as weaker potency. A word on the CC50: it is the concentration that lowers cell viability or growth by half. The low end stands for greater toxicity to the cells, the high end for lower toxicity to the cells. As a reminder, the solubility is how much of the substance goes into solution per volume. With `CN(C)CCCn1c(SCCc2c[nH]c3ccccc23)nc2ccc(Cl)cc2c1=O.Cl` [TG15-139S, 2-((2-(1H-indol-3-yl)ethyl)thio)-6-chloro-3-(3-(dimethylamino)propyl)quinazolin-4(3H)-one. Hydrochloride], the IC50 against NOX-4 came to 32 µM. In addition, in series [1], the half-life turned out to be 1.25 h. Further, the CC50 in “Cytotoxicity CC50” is greater than 10 µM. The compound further showed an IC50 against NOX-2 of 1.65 µM. In series [2], the “water solubility (in words)” value was “excellent water solubility” and the solubility worked out at 2350 µM. The Kp at 8 h in series [3] (male, Sprague-Dawley, rat, brain and plasma, SD rats, single 20 mg/kg IP, up to 8 h, read-out: brain-to-plasma ratio up to 8 h) is greater than 10. In addition, the Kp in series [3] (male, Sprague-Dawley, rat, brain and plasma, SD rats, single 20 mg/kg IP, read-out: brain-to-plasma ratio) is greater than 23.

Compound `CN(C)CCCn1c(SCCc2ccccn2)nc2ccc(Cl)cc2c1=O` [TG15-124-HCl, 6-chloro-3-(3-(dimethylamino)propyl)-2-((2-(pyridin-2-yl)ethyl)thio)quinazolin-4(3H)-one] returned a CC50 in the series “Cytotoxicity CC50” greater than 10 µM. The compound also displayed an IC50 against NOX-2 greater than 100 µM.

The compound `CC(C)N1CCN(CCCn2c(SCCc3c[nH]c4ccccc34)nc3ccc(F)cc3c2=O)CC1` [TG17-57, 2-((2-(1H-indol-3-yl)ethyl)thio)-6-fluoro-3-(3-(4-isopropylpiperazin-1-yl)propyl)quinazolin-4(3H)-one] displayed a concentration for half-maximal inhibition (IC50) against NOX-2 of 2.4 µM.

Consider `CN(C)CCCn1c(SCCc2c[nH]c3ccccc23)nc2ccc(F)cc2c1=O.Cl` [TG15-132S, 2-((2-(1H-indol-3-yl)ethyl)thio)-3-(3-(dimethylamino)propyl)-6-fluoroquinazolin-4(3H)-one, hydrochloride], for which the IC50 turned out to be 26 µM against NOX-4 and 3.3 µM against NOX-2. Also, the half-life in series [1] is 0.4 h; in series [3] (Sprague-Dawley, rat, 20 mg/kg IP, brain, read-out: half-life in the brain), greater than 5 h; in series [3] (Sprague-Dawley, rat, 20 mg/kg IP, plasma, read-out: half-life in plasma), greater than 5 h. For the same compound, the CC50 in “Cytotoxicity CC50” is greater than 20 µM. For the same compound, the “mRNA levels of NOX2 (gp91phox), p47phox, p67phox, IL-1beta and TNF” value with THP1 monocytic cells is “suppressed”. In addition, in series [2], the “water solubility (in words)” value is listed as “excellent water solubility”. Further, the solubility in series [2] came to 1200 µM. Moreover, the clearance rate in series [3] (SD rats, single 20 mg/kg IP) amounted to 32.75 mL/min/kg. Besides, the Kp in series [3] (male, Sprague-Dawley, brain and plasma, rat, 20 mg/kg IP, read-out: In vivo B/P Ratio (brain-to-plasma ratio)) was greater than 10. For the same compound, in series [3] (rat, 20 mg/kg IP, hydrochloride), the “In vivo B/P Ratio (brain-to-plasma ratio)” value is reported as greater than 10.

`CN(C)CCCn1c(SCCCc2ccccn2)nc2ccc(F)cc2c1=O` [LY5-11, 3-(3-(dimethylamino)propyl)-6-fluoro-2-((3-(pyridin-2-yl)propyl)thio)quinazolin-4(3H)-one] came in with an IC50 against NOX-2 greater than 100 µM.

Turning to `O=C(CCCn1c(=S)[nH]c2ccc(F)cc2c1=O)N1CCN(c2ccccc2O)CC1` [LY4-123S, 6-fluoro-3-(4-(4-(2-hydroxyphenyl)piperazin-1-yl)-4-oxobutyl)-2-thioxo-2,3-dihydroquinazolin-4(1H)-one], the IC50 at NOX-4 was 8.3 µM; on NOX-2, 3.3 µM.

For `O=C(CCCn1c(=S)[nH]c2ccccc2c1=O)N1CCN(c2ccccc2O)CC1` [Compd. 43, 3-(4-(4-(2-hydroxyphenyl)piperazin-1-yl)-4-oxobutyl)-2-thioxo-2,3-dihydroquinazolin-4(1H)-one], the figures for the half-inhibitory concentration (IC50) at NOX-4 and against NOX-2 were greater than 50 µM and 2.3 µM, respectively. In “Cytotoxicity CC50”, this compound came in with a CC50 greater than 20 µM.

With `CN(C)CCCn1c(SCCc2ccccn2)nc2ccc(F)cc2c1=O` [TG15-131-HCl, 3-(3-(dimethylamino)propyl)-6-fluoro-2-((2-(pyridin-2-yl)ethyl)thio)quinazolin-4(3H)-one], at NOX-2, the IC50 is greater than 50 µM.

On NOX-2, `CN(C)CCCn1c(SCc2ccccn2)nc2ccc(F)cc2c1=O` [LY5-10, 3-(3-(dimethylamino)propyl)-6-fluoro-2-((pyridin-2-ylmethyl)thio)quinazolin-4(3H)-one] came in with an IC50 greater than 100 µM.

These data come from patent US20240208944A1, “Quinazoline Derivatives, Pharmaceutical Compositions, and Therapeutic Uses Related to Nox Inhibition” (Emory University, priority 2021, published 2024).
